The text below walks through data of US5696276A, “Process for preparing 5,8-dihydroxynaphthoquinone derivatives, novel 5,8-dihydroxynaphthoquinone derivatives and their use as anticancer agent” (Kuhnil Pharmaceutical Co., Ltd., priority 1993, dated 1997).

In brackets after ≈: the same amount, converted by molar mass.

In test [1] the test system is L1210 cells. Kind of test: Cytotoxic activity against L1210 cells. It is filed as cell-based. Particulars: Mus musculus; L1210 cells, 48 hours, 37° C.; read-out: ED50, cytotoxic activity against L1210. An outline of the steps:
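Log-phase L1210 cells (5×10^4 cells/ml) in Fisher medium exposed 48 h at 37 °C in CO2 to three dilutions of sample dissolved in ethanol or DMSO. Cells counted by haemacytometer; growth relative to control; ED50 (μg/ml) from linear regression of growth % on log concentration.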

For test [2], the system named is HL-60 cells. Kind of test: Cytotoxic activity against HL-60 cells. The test is classed as cell-based. Particulars: Homo sapiens; HL-60 cells, 48 hours, 37° C.; read-out: ED50, cytotoxic activity against HL-60. The procedure: As in the test for the cytotoxic activity against L1210 cells, the test samples were dissoved in ethanol or dimethylsulfoxide in a certain concentration. 0.1 ml of the sample solution was mixed with 0.9 ml of a fresh medium to prepare the dilutions. To each two test tubes having a screw cap were added 100, 50, 25 μl, respectively, of the sample dilutions by means of a micropipet. To each test tube for the test group and the control group (2√n: n=number of the samples) was added 5 ml of the dilutions of HL-60 cells and K-562 cells which were cultured and activated before 24 hours from the beginning of experiment and then diluted in a concentration of 1×10^5 cells/mi. All test tubes were cultured for 48 hours in a CO2 incubator at 37° C. and then the number of cells was counted using a haemacytometer.
The ED50 value is defined as a concentration (μg/ml) of the sample which inhibits the growth of cancer cells by 50% of the control group and determined according to a method described in NIC's mannual (NIC=National Cancer Institue, U.S.A.). The growth rate Y(%) of cells in the presence of the test sample in each concentration was calculated according to the followign equation: […]
In the above equation, T means the average cell number per ml in the test group after incubation for 48 hours in the presence of the test samples in each concentration, C means the average cell number per ml in the control group after incubation for 48 hours, and Co means the average cell number per ml in the control group at the beginning of incubation. The Y(%) value at each concentration and log10 value of each concentration were obtained and the regression curve was constructed according to the following equation from those obtained values. In this case, when all the Y(%) value obtained at each concentration is greater than 55% or lower than 45%, the experiment was repeatedly conducted.
To construct the regression curve Y=A+BX the values A and B were obtained using the following equation. [formula]
In the above, the value N is the number of selected points which is greater than 2 and lower than, or identical with, the number of cencentration of the test sample, Xi is log(concentration) i, and Yi is the growth ratio at (concentration)i. The value of ED50 was obtained for those obtained slope and intercept.

Test [3] concerns A549 cancer cells. Kind of test: Cytotoxic activity against A549 cancer cells (sulforhodamin B method). It is filed as cell-based. The following applies: Homo sapiens; A549 cells, SRB method, 48 hours; read-out: ED50, cytotoxic activity against A549. An outline of the steps:
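Cells seeded at 8×10^4 per well, attached 24 h, then exposed 48 h to six log-spaced concentrations in triplicate. TCA-fixed, SRB-stained, OD read at 520 nm; growth inhibition computed relative to time-zero and untreated counts, IC50 from regression.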
Background: Sulforhodamine B stains cellular protein and so reports cell mass.

The subject of test [4] is S-180 sarcoma cells. Kind of test: Animal experiment using Sarcoma S-180 cells (survival of mouse). The test is classed as in vivo, male ICR mouse. Particulars: ip, S-180 ICR mouse, intraperitoneal, 7 to 8 injections; for responders at 15 µmol/kg / responders at 10 µmol/kg: 1200 h, read-out: Number of mouse survived for 50 days (converted); for responders at 15 µmol/kg / response vs control in vivo at 15 µmol/kg: daily dose 15 μmole (mg/kg/day given per compound); for response vs control in vivo at 15 µmol/kg / response vs control in vivo at 10 µmol/kg: read-out: T/C; for responders at 10 µmol/kg / response vs control in vivo at 10 µmol/kg: daily dose 10 μmole (mg/kg/day given per compound). An outline of the steps: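 Male ICR mice (20 to 25 g) received intraperitoneal transplants of 0.1 ml S-180 cell suspension (10^7 cells/ml), prepared from ascites by washing in cold physiological saline. After 24 hours, groups of 8 to 9 mice received 7 to 8 ip injections of sample in dimethylsulfoxide diluted with saline. Controls got 2% dimethylsulfoxide-saline. Survival (T/C, %) was scored against control death.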

`CCCCCC=CCC=CCCCCCCCC(=O)OC(CC=C(C)C)C1=CC(=O)c2c(O)ccc(O)c2C1=O` (stereo not drawn) [2-[1-(9,12-octadecadinoyloxy-4-methyl-3-pentenyl]-5,8-dihydroxy-1,4-naphthoquinone]: the values for the IC50 in test [1], in test [2] and in test [3] were 5 µg/mL (≈ 9.08 µM), 12.5 µg/mL (≈ 22.7 µM) and greater than 20 µg/mL, respectively. For the same molecule, in test [4], the responders at 15 µmol/kg was 0%. Also, the response vs control in vivo at 15 µmol/kg in test [4] was found to be 100%.

Turning to `C=CCCCCCCCCC(=O)OC(CC=C(C)C)C1=CC(=O)c2c(O)ccc(O)c2C1=O` (stereo not drawn) [2-(1-undecylenoyloxy-4-methyl-3-pentenyl)-5,8-dihydroxy-1,4-naphthoquinone], the IC50 in test [1] was determined as 0.01 µg/mL (≈ 0.022 µM); in test [2], 0.3 µg/mL (≈ 0.66 µM); in test [3], 6.7 µg/mL (≈ 14.7 µM). Moreover, the responders at 15 µmol/kg in test [4] was 0%. Moreover, the response vs control in vivo at 15 µmol/kg in test [4] turned out to be 110%.

Turning to `CCCCCCCCCCCCCCCCCC(=O)OC(CC=C(C)C)C1=CC(=O)c2c(O)ccc(O)c2C1=O` (stereo not drawn), the IC50 in test [1] was 1.1 µg/mL (≈ 1.98 µM); in test [2], 10 µg/mL (≈ 18 µM); in test [3], greater than 20 µg/mL. Moreover, the responders at 15 µmol/kg in test [4] is 0%. In addition, in test [4], the response vs control in vivo at 15 µmol/kg was determined as 110%.

As to `CC(C)=CCC(OC(=O)C(Cl)(Cl)Cl)C1=CC(=O)c2c(O)ccc(O)c2C1=O` (stereo not drawn) [2-(1-trichloroacetyloxy-4-methyl-3-pentenyl)-5,8-dihydroxy-1,4-naphthoquinone], the IC50 in test [1] stood at 0.01 µg/mL (≈ 0.0231 µM); in test [2], 0.3 µg/mL (≈ 0.692 µM); in test [3], 2 µg/mL (≈ 4.61 µM). For the same molecule, the responders at 10 µmol/kg in test [4] was 0%. For the same molecule, the response vs control in vivo at 10 µmol/kg in test [4] was 134%.

For `CCCCCCCC/C=C\CCCCCCCC(=O)OC(CC=C(C)C)C1=CC(=O)c2c(O)ccc(O)c2C1=O` (stereo not drawn), the IC50 in test [1] was 2.4 µg/mL (≈ 4.34 µM); in test [2] it was 9.6 µg/mL (≈ 17.4 µM); in test [3] it was greater than 20 µg/mL. For the same molecule, the responders at 15 µmol/kg in test [4] was 0%. The response vs control in vivo at 15 µmol/kg in test [4] turned out to be 130%.

In the case of `CC/C=C/C(=O)OC(CC=C(C)C)C1=CC(=O)c2c(O)ccc(O)c2C1=O` (stereo not drawn) [2-[1-(trans-2-pentenoyloxy)-4-methyl-3-pentenyl]-5,8-dihydroxy-1,4-naphthoquinone], the results for the IC50 in test [1], in test [2] and in test [3] were 0.4 µg/mL (≈ 1.08 µM), 0.9 µg/mL (≈ 2.43 µM) and 1.1 µg/mL (≈ 2.97 µM), respectively. Moreover, the responders at 15 µmol/kg in test [4] is 14.3%. For the same molecule, the response vs control in vivo at 15 µmol/kg in test [4] came out at 210%.

`C=CCCC(=O)OC(CC=C(C)C)C1=CC(=O)c2c(O)ccc(O)c2C1=O` (stereo not drawn) [2-[1-(4-pentenoyl)oxy-4-methyl-3-pentenyl]-5,8-dihydroxy-1,4-naphthoquinone]: the IC50 was 0.02 µg/mL (≈ 0.054 µM) in test [1], 0.5 µg/mL (≈ 1.35 µM) in test [2] and 1 µg/mL (≈ 2.7 µM) in test [3]. In addition, the responders at 10 µmol/kg in test [4] was 14.3%. In test [4], the response vs control in vivo at 10 µmol/kg stood at 180%.

With `CCCCCC(=O)OC(CC=C(C)C)C1=CC(=O)c2c(O)ccc(O)c2C1=O` (stereo not drawn) [2-(1-n-hexanoyloxy-4-methyl-3-pentenyl)-5,8-dihydroxy-1,4-naphthoquinone], the IC50 in test [1] turned out to be 0.2 µg/mL (≈ 0.518 µM); in test [2], 0.7 µg/mL (≈ 1.81 µM); in test [3], 2.6 µg/mL (≈ 6.73 µM). Also, the responders at 10 µmol/kg in test [4] is 33.3%. Moreover, in test [4], the response vs control in vivo at 10 µmol/kg was 214%.

For `CCC/C=C/C(=O)OC(CC=C(C)C)C1=CC(=O)c2c(O)ccc(O)c2C1=O` (stereo not drawn) [2-[1-trans-(2-hexenoyl)oxy-4-methyl-3-pentenyl]-5,8-dihydroxy-1,4-naphthoquinone], the figures for the IC50 in test [1], in test [2] and in test [3] were 0.5 µg/mL (≈ 1.3 µM), 1 µg/mL (≈ 2.6 µM) and 1.6 µg/mL (≈ 4.16 µM), respectively. The responders at 10 µmol/kg in test [4] was 12.5%. Also, in test [4], the response vs control in vivo at 10 µmol/kg amounted to 160%.
